# Laboratory results: the supplement of paper PMC10331698
# ± gives the standard deviation of the averaged measurements.
# Tests used:
# Experiment in all cases: level (log10 ratio to DMSO vehicle control); higher = higher biomarker level / cell amount than vehicle control
# Conditions in all cases: in DMSO
# [1] = compound: O=C(O)C(F)(F)C(F)(F)C(F)(F)C(F)(F)C(F)(F)C(F)(F)C(F)(F)C(F)(F)C(F)(F)C(F)(F)C(F)(F)C(F)(F)F [Perfluorotridecanoic acid]
# Experimental: (§1)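 BioMAP Diversity Plus panel of 12 human primary cell co-culture systems (3C, 4H, LPS, SAg, BT, BF4T, BE3C, CASM3C, HDF3CGF, KF3CT, MyoF, Mphg). Compounds were added 1 h before stimulation and left for 24 h (MyoF 48 h; BT 72 h for soluble read-outs or 6 d for IgG). Biomarkers were read by ELISA, cytotoxicity by SRB, PBMC viability and proliferation by Alamar Blue. Each well value was divided by the mean of 8 DMSO control wells on the same plate and log10 transformed; duplicate blinded samples were tested at 4 concentrations.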
# [2] = compound: C=CC(=O)OCCC(F)(F)C(F)(F)C(F)(F)C(F)(F)F [2-(Perfluorobutyl)ethyl acrylate]
# Experimental: as §1
# Perfluorooctanamidine = compound: N=C(N)C(F)(F)C(F)(F)C(F)(F)C(F)(F)C(F)(F)C(F)(F)C(F)(F)F [Perfluorooctanamidine]
# Experimental: as §1
# 1-(Perfluorohexyl)octane = compound: CCCCCCCCC(F)(F)C(F)(F)C(F)(F)C(F)(F)C(F)(F)C(F)(F)F [1-(Perfluorohexyl)octane]
# Experimental: as §1
# Perfluorohexanoic acid = compound: O=C(O)C(F)(F)C(F)(F)C(F)(F)C(F)(F)C(F)(F)F [Perfluorohexanoic acid]
# Experimental: as §1
# [3] = compound: O=S(=O)(O)C(F)(F)C(F)(F)C(F)(F)C(F)(F)F [Perfluorobutanesulfonic acid]
# Experimental: as §1
Test System,level (log10) ([1]; 1500 nM),level (log10) ([1]; 4400 nM),level (log10) ([1]; 13000 nM),level (log10) ([1]; 40000 nM),level (log10) ([2]; 6700 nM),level (log10) ([2]; 20000 nM),level (log10) ([2]; 60000 nM),level (log10) (Perfluorooctanamidine; 6700 nM),level (log10) (Perfluorooctanamidine; 20000 nM),level (log10) (Perfluorooctanamidine; 60000 nM),level (log10) (1-(Perfluorohexyl)octane; 6700 nM),level (log10) (1-(Perfluorohexyl)octane; 20000 nM),level (log10) (Perfluorohexanoic acid; 6700 nM),level (log10) (Perfluorohexanoic acid; 20000 nM),level (log10) (Perfluorohexanoic acid; 60000 nM),level (log10) ([3]; 6700 nM),level (log10) ([3]; 20000 nM),level (log10) ([3]; 60000 nM)
LPS:CD69,0.002 ± 0.034,-0.0545 ± 0.053,-0.0455 ± 0.044,-0.069 ± 0.025,-0.0225 ± 0.015,-0.017 ± 0.041,-0.049 ± 0.041,-0.025 ± 0.045,-0.0395 ± 0.04,-0.132,-0.012 ± 0.061,0.007 ± 0.038,0.0025 ± 0.0078,-0.0165 ± 0.0021,-0.0295 ± 0.013,-0.0405 ± 0.061,0.0155 ± 0.05,0.0825 ± 0.023
LPS:CD106/VCAM-1,-0.004 ± 0.0014,-0.0315 ± 0.054,-0.029 ± 0.052,-0.08 ± 0.0057,-0.028 ± 0.024,-0.0465 ± 0.0035,-0.141 ± 0.011,-0.017 ± 0.014,-0.0365 ± 0.026,-0.091,0.001 ± 0.0057,0.017 ± 0.0085,-0.0025 ± 0.0035,-0.0055 ± 0.0035,0.008 ± 0.0042,-0.0055 ± 0.012,0.0175 ± 0.011,0.03 ± 0.0014
LPS:CD141/Thrombomodulin,0.045 ± 0.016,0.0125 ± 0.0092,0.0335 ± 0.0035,-0.001 ± 0.016,-0.0365 ± 0.019,-0.03 ± 0.014,-0.038 ± 0.021,-0.0235 ± 0.0078,-0.0325 ± 0.022,-0.01,-0.0215 ± 0.0021,0.0025 ± 0.023,0.0085 ± 0.012,0.0065 ± 0.026,0.007 ± 0.017,-0.048 ± 0.0085,-0.0045 ± 0.015,-0.024 ± 0.031
LPS:CD142/Tissue Factor,0.0325 ± 0.08,-0.026 ± 0.058,0.0025 ± 0.069,0.0325 ± 0.019,0.027 ± 0.016,-0.027 ± 0.088,-0.177 ± 0.12,-0.008 ± 0.037,0.0055 ± 0.033,-0.071,-0.006 ± 0.088,0.003 ± 0.083,0.0205 ± 0.021,0.0045 ± 0.011,0.015 ± 0.0071,0.016 ± 0.038,-0.0155 ± 0.039,-0.0175 ± 0.016
LPS:CXCL8/IL-8,-0.011 ± 0.041,-0.058 ± 0.041,-0.0065 ± 0.042,0.016 ± 0.11,0.0145 ± 0.015,0.0225 ± 0.012,-0.015 ± 0.054,-0.019 ± 0.027,-0.005 ± 0.016,-0.028,0.0335 ± 0.00071,0.0405 ± 0.026,0.0035 ± 0.016,0.011 ± 0.0028,0.0575 ± 0.0035,0.0225 ± 0.019,0.0125 ± 0.021,0.0765 ± 0.00071
LPS:IL-1alpha,0.0655 ± 0.088,-0.0155 ± 0.06,0.0405 ± 0.042,0.0445 ± 0.018,0.009 ± 0.023,0.031 ± 0.013,0.02 ± 0.021,0.011 ± 0.024,-0.0095 ± 0.049,-0.003,-0.0215 ± 0.016,0.001 ± 0.0057,0.0135 ± 0.0064,0.0145 ± 0.0092,-0.003 ± 0.02,-0.0445 ± 0.067,-0.0235 ± 0.013,-0.0265 ± 0.05
LPS:M-CSF,-0.006 ± 0.042,-0.017 ± 0.047,-0.0135 ± 0.019,-0.568 ± 0.03,-0.0115 ± 0.0021,-0.0085 ± 0.011,-0.052 ± 0.085,-0.0045 ± 0.0078,-0.011 ± 0.03,-0.068,-0.0065 ± 0.021,0.0235 ± 0.037,0.002 ± 0.0099,-0.0125 ± 0.015,-0.0055 ± 0.025,0.021 ± 0.016,-0.0035 ± 0.00071,0.01 ± 0.014
LPS:SRB,-0.003 ± 0.014,-0.011 ± 0.0014,-0.008 ± 0.011,0.006 ± 0.021,0.0015 ± 0.012,-0.0015 ± 0.0035,-0.013 ± 0.013,-0.005 ± 0.0085,0.006 ± 0.011,-0.035,0.0035 ± 0.0078,0.0035 ± 0.011,-0.013 ± 0.0071,-0.009,-0.0065 ± 0.0078,0.0065 ± 0.011,0.004 ± 0.0057,0.002 ± 0.0057
LPS:sPGE2,0.0325 ± 0.016,0.0275 ± 0.049,-0.052 ± 0.034,-0.022 ± 0.061,-0.0675 ± 0.022,-0.099 ± 0.0085,-0.101 ± 0.021,-0.019 ± 0.031,-0.078 ± 0.031,-0.06,0.011 ± 0.018,0.02 ± 0.0042,0.025 ± 0.052,0.013 ± 0.021,-0.009 ± 0.041,0.0595 ± 0.011,0.041 ± 0.051,0.0355 ± 0.043
LPS:sTNF-alpha,-0.0185 ± 0.0092,-0.016 ± 0.018,-0.0375 ± 0.025,-0.0485 ± 0.021,-0.009 ± 0.014,-0.0025 ± 0.018,-0.0165 ± 0.025,-0.0145 ± 0.071,-0.095 ± 0.17,-0.08,0.0005 ± 0.0064,-0.0015 ± 0.013,-0.009 ± 0.0014,-0.0005 ± 0.021,-0.0515 ± 0.0021,0.002 ± 0.028,-0.0175 ± 0.023,-0.0075 ± 0.026
SAg:CCL2/MCP-1,-0.013 ± 0.016,-0.0275 ± 0.0035,-0.0265 ± 0.0064,0.005 ± 0.014,-0.0205 ± 0.012,-0.083 ± 0.0057,-0.141 ± 0.035,-0.004 ± 0.0014,0.0225 ± 0.005,-0.015,-0.01,0.0015 ± 0.018,-0.01 ± 0.0057,-0.0255 ± 0.0078,0.0135 ± 0.018,-0.0225 ± 0.0092,-0.0075 ± 0.0064,0.0185 ± 0.033
SAg:CD38,-0.017 ± 0.014,-0.037 ± 0.02,-0.0245 ± 0.018,-0.027 ± 0.0028,-0.007 ± 0.028,-0.0105 ± 0.023,-0.126 ± 0.0092,0.009 ± 0.017,0.001 ± 0.013,-0.074,0.0015 ± 0.0078,0.0105 ± 0.00071,0.003 ± 0.023,-0.004 ± 0.0014,-0.0005 ± 0.025,-0.005 ± 0.0028,-0.0085 ± 0.0064,-0.0155 ± 0.00071
SAg:CD40,-0.021 ± 0.017,-0.071 ± 0.0057,-0.0705 ± 0.06,-0.497 ± 0.044,-0.0225 ± 0.0064,-0.0405 ± 0.0035,-0.153 ± 0.018,-0.0055 ± 0.0021,0.014 ± 0.023,-0.093,-0.0275 ± 0.00071,-0.017 ± 0.016,0.0065 ± 0.016,-0.0145 ± 0.012,-0.0095 ± 0.021,-0.0075 ± 0.0064,-0.024 ± 0.011,-0.0445 ± 0.036
SAg:CD62E/E-Selectin,0.0065 ± 0.018,-0.0015 ± 0.0064,0.012 ± 0.0057,0.006 ± 0.0014,-0.0185 ± 0.012,-0.1 ± 0.016,-0.625 ± 0.068,0.004 ± 0.0014,0.0265 ± 0.00071,-0.049,-0.019 ± 0.013,0.003 ± 0.0099,0.001 ± 0.018,-0.01 ± 0.023,0.0195 ± 0.005,-0.0045 ± 0.005,-0.008 ± 0.0085,-0.001 ± 0.024
SAg:CD69,-0.0075 ± 0.037,-0.053 ± 0.03,-0.0305 ± 0.025,-0.0685 ± 0.0078,-0.028 ± 0.0028,-0.0845 ± 0.026,-0.225 ± 0.037,0.006 ± 0.03,-0.0035 ± 0.019,-0.036,-0.0045 ± 0.011,-0.0045 ± 0.028,-0.0065 ± 0.00071,-0.0115 ± 0.021,-0.0125 ± 0.0092,-0.008 ± 0.0028,-0.013 ± 0.017,-0.043 ± 0.037
SAg:CXCL8/IL-8,0.018 ± 0.072,-0.0025 ± 0.021,-0.001 ± 0.0057,0.0035 ± 0.09,-0.029 ± 0.0099,-0.103 ± 0.013,-0.31 ± 0.064,0.005 ± 0.018,0.023 ± 0.0085,-0.022,-0.013 ± 0.0085,0.032 ± 0.041,-0.049 ± 0.052,-0.009 ± 0.038,0.0035 ± 0.084,-0.0025 ± 0.023,-0.001 ± 0.014,0.049 ± 0.037
SAg:CXCL9/MIG,-0.002 ± 0.0028,-0.013,-0.016 ± 0.0028,0.0035 ± 0.018,-0.007 ± 0.016,0.001 ± 0.0057,-0.004 ± 0.013,0 ± 0.0085,0.0085 ± 0.0021,0.007,-0.002 ± 0.0057,0.0095 ± 0.016,-0.0005 ± 0.0064,-0.001 ± 0.0085,0.0055 ± 0.005,-0.0105 ± 0.00071,0.002 ± 0.014,-0.002 ± 0.02
SAg:PBMC Cytotoxicity,-0.0045 ± 0.021,0.0025 ± 0.0021,-0.061 ± 0.042,-0.0085 ± 0.028,-0.034 ± 0.0085,-0.0385 ± 0.011,-0.125 ± 0.028,0.011 ± 0.021,0.003 ± 0.016,-0.263,0.023 ± 0.011,0.023 ± 0.017,-0.0155 ± 0.046,0.002 ± 0.0028,0.009 ± 0.073,-0.029 ± 0.038,-0.0315 ± 0.036,0.023 ± 0.024
SAg:Proliferation,-0.019 ± 0.047,-0.0125 ± 0.005,-0.066 ± 0.023,-0.036 ± 0.031,-0.043 ± 0.035,-0.122 ± 0.035,-0.372 ± 0.1,0.0195 ± 0.011,0 ± 0.048,-0.565,0.0125 ± 0.04,0.0675 ± 0.03,0.0065 ± 0.011,0.003 ± 0.021,0.027 ± 0.0042,-0.0295 ± 0.11,-0.0385 ± 0.023,0.039 ± 0.017
SAg:SRB,-0.0015 ± 0.011,-0.0095 ± 0.0035,-0.0045 ± 0.012,-0.0335 ± 0.026,0.009 ± 0.0071,0.0115 ± 0.0092,-0.0175 ± 0.028,-0.0025 ± 0.0078,0.0025 ± 0.018,-0.084,0.0035 ± 0.0078,-0.004 ± 0.018,-0.0055 ± 0.0035,-0.0135 ± 0.0035,-0.001 ± 0.0028,0.0005 ± 0.0092,-0.0085 ± 0.0092,-0.0055 ± 0.013
